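Test compounds were applied to cells in 96-well plates for 48 hours at 5 doses. The concentration for 50% growth inhibition is given as GI50. TGI denotes the concentration required for complete inhibition of growth.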
Experiments:
Test in all cases: growth of human tumour cells (NCI), 48 h
786-0 renal = test system: 786-0 renal
A498 renal = test system: A498 renal
A549 NSCLC = test system: A549 NSCLC
ACHN renal = test system: ACHN renal
BT-549 breast = test system: BT-549 breast
CAKI-1 renal = test system: CAKI-1 renal
CCRF-CEM leukemia = test system: CCRF-CEM leukemia
COLO 205 colon = test system: COLO 205 colon
DU-145 prostate = test system: DU-145 prostate
EKVX NSCLC = test system: EKVX NSCLC
HCC-2998 colon = test system: HCC-2998 colon
HCT-116 colon = test system: HCT-116 colon
HCT-15 colon = test system: HCT-15 colon
HL-60(TB) leukemia = test system: HL-60(TB) leukemia
HOP-62 NSCLC = test system: HOP-62 NSCLC
HOP-92 NSCLC = test system: HOP-92 NSCLC
HS 578T breast = test system: HS 578T breast
HT29 colon = test system: HT29 colon
IGROV1 ovarian = test system: IGROV1 ovarian
K-562 leukemia = test system: K-562 leukemia
KM12 colon = test system: KM12 colon
LOX IMVI melanoma = test system: LOX IMVI melanoma
M14 melanoma = test system: M14 melanoma
MALME-3M melanoma = test system: MALME-3M melanoma
MCF7 breast = test system: MCF7 breast
MDA-MB-231 breast = test system: MDA-MB-231 breast
MDA-MB-435 = test system: MDA-MB-435
MOLT-4 leukemia = test system: MOLT-4 leukemia
NCI-H226 lung = test system: NCI-H226 lung
NCI-H460 lung = test system: NCI-H460 lung
NCI-H522 lung = test system: NCI-H522 lung
NCI/ADR-RES ovarian = test system: NCI/ADR-RES ovarian
OVCAR-3 ovarian = test system: OVCAR-3 ovarian
OVCAR-4 ovarian = test system: OVCAR-4 ovarian
OVCAR-5 ovarian = test system: OVCAR-5 ovarian
OVCAR-8 ovarian = test system: OVCAR-8 ovarian
PC-3 prostate = test system: PC-3 prostate
RPMI-8226 leukemia = test system: RPMI-8226 leukemia
RXF 393 renal = test system: RXF 393 renal
SF-268 CNS = test system: SF-268 CNS
SF-295 CNS = test system: SF-295 CNS
SF-539 CNS = test system: SF-539 CNS
SK-MEL-2 melanoma = test system: SK-MEL-2 melanoma
SK-MEL-28 melanoma = test system: SK-MEL-28 melanoma
SK-MEL-5 melanoma = test system: SK-MEL-5 melanoma
SK-OV-3 ovarian = test system: SK-OV-3 ovarian
SN12C renal = test system: SN12C renal
SNB-19 CNS = test system: SNB-19 CNS
SNB-75 CNS = test system: SNB-75 CNS
SR leukemia = test system: SR leukemia
SW-620 colon = test system: SW-620 colon
T-47D breast = test system: T-47D breast
TK-10 renal = test system: TK-10 renal
U251 CNS = test system: U251 CNS
UACC-257 melanoma = test system: UACC-257 melanoma
UACC-62 melanoma = test system: UACC-62 melanoma
UO-31 renal = test system: UO-31 renal

## Cc1ccc2c(n1)C(=O)C(Cl)=C(Nc1ccc(C(=O)OC(C)(C)C)cc1)C2=O
786-0 renal
  GI50: > 92.5 µM
  TGI: > 92.5 µM
A498 renal
  GI50: > 92.5 µM
  TGI: > 92.5 µM
A549 NSCLC
  GI50: > 92.5 µM
  TGI: > 92.5 µM
ACHN renal
  GI50: 15.8 µM
  TGI: 28.6 µM
BT-549 breast
  GI50: > 92.5 µM
  TGI: > 92.5 µM
CAKI-1 renal
  GI50: 14.4 µM
  TGI: 30.6 µM
CCRF-CEM leukemia
  GI50: 5.9 µM
  TGI: > 92.5 µM
COLO 205 colon
  GI50: 21.9 µM
  TGI: 63 µM
DU-145 prostate
  GI50: > 92.5 µM
  TGI: > 92.5 µM
EKVX NSCLC
  GI50: > 92.5 µM
  TGI: > 92.5 µM
HCC-2998 colon
  GI50: > 92.5 µM
  TGI: > 92.5 µM
HCT-116 colon
  GI50: 15.5 µM
  TGI: 32 µM
HCT-15 colon
  GI50: 15.4 µM
  TGI: 33.9 µM
HL-60(TB) leukemia
  GI50: 7.65 µM
  TGI: 71.1 µM
HOP-62 NSCLC
  GI50: > 92.5 µM
  TGI: > 92.5 µM
HOP-92 NSCLC
  GI50: 16.4 µM
  TGI: 36.7 µM
HS 578T breast
  GI50: > 92.5 µM
  TGI: > 92.5 µM
HT29 colon
  GI50: > 92.5 µM
  TGI: > 92.5 µM
IGROV1 ovarian
  GI50: 71.4 µM
  TGI: > 92.5 µM
K-562 leukemia
  GI50: 3.77 µM
  TGI: > 92.5 µM
KM12 colon
  GI50: > 92.5 µM
  TGI: > 92.5 µM
LOX IMVI melanoma
  GI50: 16.9 µM
  TGI: 33 µM
M14 melanoma
  GI50: 29.2 µM
  TGI: > 92.5 µM
MALME-3M melanoma
  GI50: 15.7 µM
  TGI: 30.5 µM
MCF7 breast
  GI50: 16 µM
  TGI: 35.3 µM
MDA-MB-231 breast
  GI50: 30.2 µM
  TGI: > 92.5 µM
MDA-MB-435
  GI50: 90.3 µM
  TGI: > 92.5 µM
MOLT-4 leukemia
  GI50: 4.65 µM
  TGI: 72.8 µM
NCI-H226 lung
  GI50: > 92.5 µM
  TGI: > 92.5 µM
NCI-H460 lung
  GI50: > 92.5 µM
  TGI: > 92.5 µM
NCI-H522 lung
  GI50: 16.3 µM
  TGI: 35.7 µM
NCI/ADR-RES ovarian
  GI50: > 92.5 µM
  TGI: > 92.5 µM
OVCAR-3 ovarian
  GI50: 13.8 µM
  TGI: 30.4 µM
OVCAR-4 ovarian
  GI50: 12.7 µM
  TGI: 29.2 µM
OVCAR-5 ovarian
  GI50: > 92.5 µM
  TGI: > 92.5 µM
OVCAR-8 ovarian
  GI50: > 92.5 µM
  TGI: > 92.5 µM
PC-3 prostate
  GI50: > 92.5 µM
  TGI: > 92.5 µM
RPMI-8226 leukemia
  GI50: 23.3 µM
  TGI: > 92.5 µM
RXF 393 renal
  GI50: 12.8 µM
  TGI: 25.5 µM
SF-268 CNS
  GI50: > 92.5 µM
  TGI: > 92.5 µM
SF-295 CNS
  GI50: > 92.5 µM
  TGI: > 92.5 µM
SF-539 CNS
  GI50: > 92.5 µM
  TGI: > 92.5 µM
SK-MEL-2 melanoma
  GI50: > 92.5 µM
  TGI: > 92.5 µM
SK-MEL-28 melanoma
  GI50: 18.2 µM
  TGI: 38.5 µM
SK-MEL-5 melanoma
  GI50: > 92.5 µM
  TGI: > 92.5 µM
SK-OV-3 ovarian
  GI50: > 92.5 µM
  TGI: > 92.5 µM
SN12C renal
  GI50: > 92.5 µM
  TGI: > 92.5 µM
SNB-19 CNS
  GI50: > 92.5 µM
  TGI: > 92.5 µM
SNB-75 CNS
  GI50: > 92.5 µM
  TGI: > 92.5 µM
SR leukemia
  GI50: 3.44 µM
  TGI: 55.7 µM
SW-620 colon
  GI50: 18.5 µM
  TGI: 44 µM
T-47D breast
  GI50: 16.6 µM
  TGI: 55.4 µM
TK-10 renal
  GI50: > 92.5 µM
  TGI: > 92.5 µM
U251 CNS
  GI50: > 92.5 µM
  TGI: > 92.5 µM
UACC-257 melanoma
  GI50: 31.7 µM
  TGI: > 92.5 µM
UACC-62 melanoma
  GI50: > 92.5 µM
  TGI: > 92.5 µM
UO-31 renal
  GI50: 18.9 µM
  TGI: 53.1 µM

From PubChem BioAssay (NCI)
